In patent US20200263231A1, “Fluorogenic dyes for high sensitivity DNA detection” (LIFE TECHNOLOGIES CORPORATION, priority 2016, published 2020):

Assays:
calf thymus DNA = assay: Fluorescence emission and enhancement of compounds bound to calf thymus DNA; assay type: binding; settings: 0.8 μM compound with 500 ng/ml calf thymus DNA in TE buffer; for Emission Max: excited at 488 nm; for Fluorescence Enhancement: emission area 500-715 nm compared to compound 1, defined as 1000-fold
Procedure: Compounds 1-65 were prepared and their fluorescence absorption and emission characteristics were measured. Intrinsic fluorescence of the compounds only (without DNA) was negligible. Emission spectra for the compounds bound to dsDNA were obtained by incubating 0.8 μM compound with 500 ng/ml calf thymus DNA in TE buffer (10 mM Tris-HCl, pH 7.5, 1 mM EDTA) in a final volume of 3 ml. Measurements were made using PerkinElmer LS 55 (F-11) Fluorescence spectrometer. Samples were excited at 488 nm and fluorescence emission was measured with emission slit widths of 2.5 nm. Absorption maxima were determined according to standard techniques.
Fluorescence enhancement measurements of the compounds were obtained by incubating 0.8 μM compound with 500 ng/ml calf thymus DNA with compounds at a final concentration of 0.8 μM in TE buffer. Compound 1 was used as an internal standard to control for variability (e.g., in excitation light intensity). The area-under-curve of fluorescence emission spectra from 500 nm to 715 nm was calculated, and compared to that of compound 1, which was defined as having 1000-fold fluorescence enhancement relative to fluorescence of the compound alone.

[1] = UV/VIS absorption spectra; assay type: physicochemical; settings: 10 μM compound in 50 mM potassium phosphate buffer (pH 7.0)
Procedure: The UV/VIS absorption spectra were obtained with 10 μM compound solution in 50 mM potassium phosphate buffer (pH 7.0) in a final volume of 3 mL. Measurements were carried out using a Lambda 245 spectrophotometer from Perkin Elmer.

Compound	Emission Max (calf thymus DNA) [nm]	Absorbance Max [1] [nm]	Fluorescence Enhancement (calf thymus DNA) [fold]
CCCN(CCCN(C)C)C1=C/C(=C/c2sc3ccccc3[n+]2C)c2ccccc2N1c1ccccc1 [Compound 1, reference compound]	523	500	1000
CCCN(CCC[N+](C)(C)CC)C1=C/C(=C/c2sc3ccccc3[n+]2C)c2ccccc2N1c1ccccc1.[Cl-].[I-] [Compound 3]	524	501	997
CCCN(CCC[N+](C)(C)CCC)C1=C/C(=C/c2sc3ccccc3[n+]2C)c2ccccc2N1c1ccccc1.[I-].[I-] [Compound 4]	524	501	925
CCCN(CCC[N+](C)(C)CCO)C1=C/C(=C/c2sc3ccccc3[n+]2C)c2ccccc2N1c1ccccc1.[I-].[I-] [Compound 5]	523	501	954
CCCN(CCC[N+](C)(C)Cc1ccccc1)C1=C/C(=C\c2sc3ccccc3[n+]2C)c2ccccc2N1c1ccccc1.[Br-].[Cl-] [Compound 6]	523	502	979
CCCN(CCC[N+](C)(C)Cc1cccc(OC)c1)C1=C/C(=C/c2sc3ccccc3[n+]2C)c2ccccc2N1c1ccccc1.[Br-].[Cl-] [Compound 7]	522	502	978
CCCCN(CCCN(C)C)C1=C/C(=C/c2sc3ccccc3[n+]2C)c2ccccc2N1c1ccccc1.[I-] [Compound 8]	525	495	946
CCCCN(CCC[N+](C)(C)C)C1=C/C(=C/c2sc3ccccc3[n+]2C)c2ccccc2N1c1ccccc1.[I-].[I-] [Compound 9]	525	496	908
CCCCN(CCC[N+](C)(C)CC)C1=C/C(=C/c2sc3ccccc3[n+]2C)c2ccccc2N1c1ccccc1.[I-].[I-] [Compound 10]	526	496	926
CCCCN(CCC[N+](C)(C)CCC)C1=C/C(=C/c2sc3ccccc3[n+]2C)c2ccccc2N1c1ccccc1.[I-].[I-] [Compound 11]	524	496	903
CCCCN(CCC[N+](C)(C)CCO)C1=C/C(=C/c2sc3ccccc3[n+]2C)c2ccccc2N1c1ccccc1.[I-].[I-] [Compound 12]	525	496	937
CCCCN(CCC[N+](C)(C)Cc1ccccc1)C1=C/C(=C/c2sc3ccccc3[n+]2C)c2ccccc2N1c1ccccc1.[Br-].[I-] [Compound 13]	523	496	922
CCCCN(CCC[N+](C)(C)Cc1cccc(OC)c1)C1=C/C(=C/c2sc3ccccc3[n+]2C)c2ccccc2N1c1ccccc1.[Br-].[I-] [Compound 14]	526	497	907
CCN(CCCN(C)C)C1=C/C(=C/c2sc3ccccc3[n+]2C)c2ccccc2N1c1ccccc1.[I-] [Compound 15]	524	495	864
CCN(CCC[N+](C)(C)C)C1=C/C(=C/c2sc3ccccc3[n+]2C)c2ccccc2N1c1ccccc1.[I-].[I-] [Compound 16]	523	496	863
CCN(CCC[N+](C)(C)CC)C1=C/C(=C/c2sc3ccccc3[n+]2C)c2ccccc2N1c1ccccc1.[I-].[I-] [Compound 17]	523	496	865
CCN(CCC[N+](C)(C)CCO)C1=C/C(=C/c2sc3ccccc3[n+]2C)c2ccccc2N1c1ccccc1.[I-].[I-] [Compound 18]	524	496	882
CCN(CCC[N+](C)(C)Cc1ccccc1)C1=C/C(=C/c2sc3ccccc3[n+]2C)c2ccccc2N1c1ccccc1.[Br-].[I-] [Compound 19]	524	497	884
CCN(CCC[N+](C)(C)Cc1cccc(OC)c1)C1=C/C(=C/c2sc3ccccc3[n+]2C)c2ccccc2N1c1ccccc1.[Br-].[I-] [Compound 20]	523	497	871
CN(C)CCCN(C)C1=C/C(=C/c2sc3ccccc3[n+]2C)c2ccccc2N1c1ccccc1.[I-] [Compound 21]	522	491	639
CN(CCC[N+](C)(C)C)C1=C/C(=C/c2sc3ccccc3[n+]2C)c2ccccc2N1c1ccccc1.[I-].[I-] [Compound 22]	520	497	639
CC[N+](C)(C)CCCN(C)C1=C/C(=C/c2sc3ccccc3[n+]2C)c2ccccc2N1c1ccccc1.[I-].[I-] [Compound 23]	524	498	622

Second part, led by results:

Emission Max (calf thymus DNA) [nm]	Absorbance Max [1] [nm]	Compound	Fluorescence Enhancement (calf thymus DNA) [fold]
522	497	CCC[N+](C)(C)CCCN(C)C1=C/C(=C/c2sc3ccccc3[n+]2C)c2ccccc2N1c1ccccc1.[I-].[I-] [Compound 24]	630
523	497	CN(CCC[N+](C)(C)CCO)C1=C/C(=C/c2sc3ccccc3[n+]2C)c2ccccc2N1c1ccccc1.[I-].[I-] [Compound 25]	640
521	498	CN(CCC[N+](C)(C)Cc1ccccc1)C1=C/C(=C/c2sc3ccccc3[n+]2C)c2ccccc2N1c1ccccc1.[I-].[I-] [Compound 26]	653
521	498	COc1cccc(C[N+](C)(C)CCCN(C)C2=C/C(=C/c3sc4ccccc4[n+]3C)c3ccccc3N2c2ccccc2)c1.[Br-].[I-] [Compound 27]	668
525	504	CCN(CCN(C)C)C1=C/C(=C/c2sc3ccccc3[n+]2C)c2ccccc2N1c1ccccc1.[Cl-] [Compound 28]	672
528	506	CCN(CC[N+](C)(C)C)C1=C/C(=C/c2sc3ccccc3[n+]2C)c2ccccc2N1c1ccccc1.[Cl-].[I-] [Compound 29]	648
526	506	CCN(CC[N+](C)(C)CC)C1=C/C(=C/c2sc3ccccc3[n+]2C)c2ccccc2N1c1ccccc1.[Cl-].[I-] [Compound 30]	638
527	506	CCC[N+](C)(C)CCN(CC)C1=C/C(=C/c2sc3ccccc3[n+]2C)c2ccccc2N1c1ccccc1.[I-].[I-] [Compound 31]	642
527	507	CCN(CC[N+](C)(C)Cc1ccccc1)C1=C/C(=C/c2sc3ccccc3[n+]2C)c2ccccc2N1c1ccccc1.[Br-].[I-] [Compound 32]	672
526	507	CCN(CC[N+](C)(C)Cc1cccc(OC)c1)C1=C/C(=C/c2sc3ccccc3[n+]2C)c2ccccc2N1c1ccccc1.[Br-].[I-] [Compound 33]	652
521	489	CCCCN(CCC[N+](C)(C)CC)C1=CC(=Cc2sc3ccccc3[n+]2C)c2ccc(OC)cc2N1c1ccccc1.[I-].[I-] [Compound 36]	1071
519	489	CCCCN(CCC[N+](C)(C)CCC)C1=CC(=Cc2sc3ccccc3[n+]2C)c2ccc(OC)cc2N1c1ccccc1.[I-].[I-] [Compound 37]	1089
520	489	CCCCN(CCC[N+](C)(C)CCO)C1=CC(=Cc2sc3ccccc3[n+]2C)c2ccc(OC)cc2N1c1ccccc1.[I-].[I-] [Compound 38]	1089
517	490	CCCCN(CCC[N+](C)(C)Cc1ccccc1)C1=CC(=Cc2sc3ccccc3[n+]2C)c2ccc(OC)cc2N1c1ccccc1.[I-].[I-] [Compound 39]	1080
520	490	CCCCN(CCC[N+](C)(C)Cc1cccc(OC)c1)C1=CC(=Cc2sc3ccccc3[n+]2C)c2ccc(OC)cc2N1c1ccccc1.[Br-].[I-] [Compound 40]	1050
